Measurements as given in PubChem BioAssay (NCI).
Several values for one entry are separate records, joined by “and”; a condition that tells them apart may be missing. Equal values may be shown once.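 Step 1: Grow cells in 96-well plates. Step 2: Expose to compound for 48 hours at 5 concentrations. Step 3: Interpolate endpoints linearly; if unreached, use highest concentration. Here, GI50 denotes the concentration required for 50% inhibition of growth. TGI: concentration producing complete growth inhibition.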

Assays:
Assay in all cases: NCI-60 cell line screen, 48 h
A549 NSCLC = test system: A549 NSCLC
HCC-2998 colon = test system: HCC-2998 colon
HOP-62 NSCLC = test system: HOP-62 NSCLC
HOP-92 NSCLC = test system: HOP-92 NSCLC
NCI-H226 lung = test system: NCI-H226 lung
OVCAR-3 ovarian = test system: OVCAR-3 ovarian
OVCAR-5 ovarian = test system: OVCAR-5 ovarian
SK-OV-3 ovarian = test system: SK-OV-3 ovarian
TK-10 renal = test system: TK-10 renal
UACC-257 melanoma = test system: UACC-257 melanoma

Row | SMILES | GI50 (A549 NSCLC) | TGI (A549 NSCLC) | GI50 (HCC-2998 colon) | TGI (HCC-2998 colon) | GI50 (HOP-62 NSCLC) | TGI (HOP-62 NSCLC) | GI50 (HOP-92 NSCLC) [µM] | TGI (HOP-92 NSCLC) | GI50 (NCI-H226 lung) | TGI (NCI-H226 lung) | GI50 (OVCAR-3 ovarian) | TGI (OVCAR-3 ovarian) | GI50 (OVCAR-5 ovarian) | TGI (OVCAR-5 ovarian) | GI50 (SK-OV-3 ovarian) | TGI (SK-OV-3 ovarian) | GI50 (TK-10 renal) | TGI (TK-10 renal) | GI50 (UACC-257 melanoma) | TGI (UACC-257 melanoma)
1 | O=C(CN1CCN(c2ncccn2)CC1)Nc1ccc(Cl)cc1C(=O)c1ccccc1Cl | 47.6 µM | > 100 µM | > 100000 nM | > 100000 nM | 13200 nM | 57.5 µM | 5.73 | 75.1 µM | > 100000 nM | > 100 µM | > 100000 nM | > 100 µM | > 100000 nM | > 100 µM | > 100000 nM | > 100 µM | > 100000 nM | > 100 µM | > 100 µM | > 100 µM
2 | C[C@@H]1C[C@@H](O)[C@]2(O)O[C@@H]3C[C@@]4(C=O)[C@@H](CC[C@@H]5[C@@H]4CC[C@]4(C)[C@@H](C6=CC(=O)OC6)CC[C@]54O)C[C@H]3O[C@@H]2O1 | 0.0146 µM | 0.0117 µM and 0.0413 µM | 27.3 nM | 582 nM and 134 nM | 14.3 nM and 5 nM | 0.0576 µM and 0.067 µM and 0.0709 µM | 0.135 | 0.234 µM and 0.683 µM | 188 nM and 33.3 nM | 0.0857 µM and 0.529 µM and 0.116 µM | 24.1 nM | – | 119 nM and 65.2 nM | 0.102 µM and 0.299 µM and 0.194 µM | 63.6 nM and 17.3 nM | – | 20.2 nM and 5 nM | 0.098 µM and 0.0775 µM and 0.0558 µM | 0.0711 µM and 0.0291 µM | 0.118 µM and 0.266 µM and 0.122 µM
3 | ClCc1cccc(Cn2cnc3c(Cl)ncnc32)c1 | 19.4 µM | 39.4 µM | 407 nM | 1750 nM | 2600 nM | 5.11 µM | 2.46 | 6.22 µM | 2150 nM | 4.38 µM | 1630 nM | 3.05 µM | 2080 nM | 4.32 µM | 3310 nM | 10.6 µM | 4590 nM | 16.1 µM | 20.2 µM | 37.1 µM
4 | COc1cccc(C2CC(C)(N3CCCC3)Oc3cc4c(cc32)OCO4)c1O (stereo not drawn) | – | > 100 µM | – | 48200 nM | – | 90.1 µM | – | > 100 µM | – | 55.9 µM | – | 46.1 µM | – | > 100 µM | – | > 100 µM | – | > 93.9 µM | – | > 100 µM
5 | COc1cc(C2CC(c3ccc(C)cc3)=NN2C=O)ccc1Oc1ccnc2cc(Cl)ccc12 (stereo not drawn) | > 50 µM | > 50 µM | > 50000 nM | > 50000 nM | 1680 nM | 8.95 µM | 9.1 | > 50 µM | 1810 nM | > 50 µM | > 50000 nM | > 50 µM | > 50000 nM | > 50 µM | 7200 nM | > 50 µM | – | – | > 50 µM | > 50 µM
6 | COc1cc(C2C=C(c3cccc(NC(C)=O)c3)Nc3ncnn32)cc(OC)c1OC (stereo not drawn) | 6.68 µM | > 100 µM | 56.6 nM | 489 nM | 554 nM | > 100 µM | – | > 65.1 µM | 667 nM | > 100 µM | 236 nM | 0.645 µM | – | > 100 µM | 903 nM | > 100 µM | 7550 nM | > 100 µM | > 92.5 µM | > 100 µM
7 | COc1cc(-c2nn(-c3ccc(NC(=O)c4ccc(Cl)c(Cl)c4)cc3)cc2-c2ccncc2)ccc1Cl | > 100 µM | > 100 µM | 31800 nM | > 100000 nM | 2280 nM | 7.51 µM | > 100 | > 100 µM | > 100000 nM | > 100 µM | > 100000 nM | > 100 µM | > 100000 nM | > 100 µM | > 100000 nM | > 100 µM | > 100000 nM | > 100 µM | > 100 µM | > 100 µM
8 | COc1cc2c3c(n(C)c(=O)c2cc1OC)-c1cc2c(cc1/C3=C\CCCCCN)OCO2 | 6.53 µM | > 54.5 µM | 1280 nM | 39500 nM | 612 nM | > 45.9 µM | 4.03 | 29 µM | 601 nM | 13.7 µM | 2790 nM | 22.1 µM | 8660 nM | > 52.9 µM | 8620 nM | 44.7 µM | – | 22.5 µM | 16.8 µM | 45.9 µM
9 | COc1ccc(C(=O)/C(Br)=C/C(=O)O)cc1 | 25.2 µM | 275 µM and 246 µM | 26600 nM | 76300 nM and 51800 nM | 24100 nM | 58.3 µM and 50.3 µM | – | 93.7 µM and 93.6 µM | 39100 nM | 148 µM and 145 µM | 35600 nM and 22700 nM | 133 µM and 116 µM | – | 131 µM and 129 µM | – | 358 µM and 299 µM | 113000 nM | 167 µM and 285 µM | 21.9 µM | 74.4 µM and 85.1 µM
10 | C=CCn1c2c(c3ccccc3c1=O)C(=O)c1ccccc1-2 | – | > 100 µM | – | > 100000 nM | – | > 100 µM | – | > 100 µM | – | > 100 µM | – | > 100 µM | – | > 100 µM | – | > 100 µM | – | > 100 µM | – | > 100 µM
11 | COc1ccc2nc(N/N=C(\C)c3ccccn3)cc(C)c2c1 | 0.315 µM | 3.24 µM | 348 nM | 2060 nM | 259 nM | 1.11 µM | 0.169 | 2.55 µM | 222 nM | 1 µM | 65.2 nM | 0.215 µM | 571 nM | 3.68 µM | 269 nM | 2.08 µM | 207 nM | 0.991 µM | 0.276 µM | 1.09 µM
12 | CN1CC[C@@H](c2c(O)cc(O)c3c(=O)cc(-c4ccccc4Cl)oc23)[C@@H](O)C1 | 0.0793 µM and 0.161 µM | 33.8 µM | 137 nM and 41.7 nM | 312 nM and 162 nM | 117 nM and 38.4 nM | – | 0.104 | 0.517 µM and 1.87 µM | 52.2 nM | 0.301 µM and 0.821 µM | 63.6 nM and 37.5 nM and 25.6 nM | > 19.4 µM | 80.1 nM and 146 nM | – | 201 nM and 428 nM | > 100 µM | 119 nM and 93.7 nM | 34.8 µM | 0.125 µM and 0.137 µM | 0.366 µM and 0.619 µM and 0.282 µM
13 | O=C1NCc2ccc3c(-c4cccc(Cl)c4)c[nH]c3c21 | 0.438 µM | > 50 µM | 734 nM | > 22900 nM | 324 nM | > 50 µM | 3.22 | > 50 µM | 28900 nM | > 50 µM | 180 nM | > 50 µM | 1620 nM | > 50 µM | 339 nM | > 50 µM | 7120 nM | > 50 µM | > 42.9 µM | > 50 µM
